How the values were obtained:
rats [1] = assay: Positional sense test; type: in vivo, rat; conditions: oral or intraperitoneal, 30 mg/kg
Experimental: (§1) Toxicity in mice and rats is assessed using three screens: the rotorod in mice, positional sense, and gait in rats. In mice, the test compound is administered at doses of 30, 100, and 300 mg/kg prior to evaluation in the toxicity screens. The mice are tested 0.5 hours and 4 hours after administration of the test compound. In rats, the test compound is administered at 30 mg/kg prior to the toxicity assessment. The rats are tested at 0.25, 0.5, 1, 2, and 4 hours after administration of the test compound.
Behavioral toxicity in rats weighing between 105 and 130 g is assessed by the positional sense test. […] If the rat experiences neurological toxicity, it will not be able to quickly lift its leg back to a normal position.

[2] = tested on: MES-induced seizure spread (hindlimb tonic extension); assay: Maximal Electroshock Seizure (MES) test; type: in vivo, rat
Description: The MES is an experimental model for generalized tonic-clonic seizures that identifies compounds which prevent seizure spread. The MES model is highly reproducible and has a consistent endpoint. An advantage of this model is that the behavioral and electrographic seizures are consistent with those observed in humans (Levy, R. H., Antiepileptic drugs. 3rd Ed. 1989, New York: Raven Press. xxvii, 1025. p. 85-102).
In the MES test, the animal receives an electrical stimulus, 0.2 seconds in duration, via corneal electrodes primed with an electrolyte solution containing an anesthetic agent. The 0.2 second stimulation is generated with 150 mA in rats at 60 Hz. Twenty rats, weighing between 105 g and 130 g receive an electrical stimulus 15 minutes, 30 minutes, 1 hour, 2 hours, 4 hours, 8 hours and 12 hours after oral administration of a dose of about 30 mg/kg of agmatine in phosphate buffered in saline per kg of the animal. The test endpoint, electrogenic seizure, is manifested as hindlimb tonic extension.

mice = assay: Rotorod neurotoxicity test; type: in vivo, mouse; conditions: doses as high as 300 mg/kg
Experimental: as §1
Toxicity in mice weighing between 20.5 and 25.5 g is assessed using the standardized rotorod test (Dunham, M. S. and T. A. Miya, A note on a simple apparatus for detecting neurological deficit in rats and mice, J. Am. Pharm. Assoc. Sci. Edit (1957) 46:208-209). Control mice can maintain their equilibrium for an extended period of time when they are placed on a 6 rpm rotation rod. Neurologically impaired animals cannot maintain equilibrium for one minute in each of three successive trials.

rats [3] = assay: Gait and stance test; type: in vivo, rat; conditions: oral or intraperitoneal, 30 mg/kg
Experimental: as §1
In the gait and stance test, neurotoxicity is indicated by a circular or zigzag gait after administration of the test compound. In addition, ataxia, abnormal spread of the legs, abnormal posture, tremor hyperactivity, lack of exploratory behavior, somnolence, stupor, or catalepsy can indicate neurotoxicity. This toxicity test was conducted on 20 rats, weighing between 105 and 130 g.

NCCCCN=C(N)N [agmatine, 4-aminobutylguanidine]
neurotoxicity in positional sense test (rats [1]): no neurotoxicity
rats protected from MES-induced seizure spread ([2]; intraperitoneal, 4 hours before electrical shock): 50%
rats protected from MES-induced seizure spread ([2]; oral 30 mg/kg, shock 0.25 hours after administration): 37.5%
rats protected from MES-induced seizure spread ([2]; oral 30 mg/kg, shock 0.5 hours after administration): 12.5%
rats protected from MES-induced seizure spread ([2]; oral 30 mg/kg, shock 2 hours after administration): 12.5%
rats protected from MES-induced seizure spread ([2]; oral 30 mg/kg, shock 4 hours after administration): 75%
rats protected from MES-induced seizure spread ([2]; oral 30 mg/kg, shock 6 hours after administration): 25%
behavioral or neurotoxicity in rotorod test (mice): none of these animals showed any evidence of behavioral or neurotoxicity
neurotoxicity in gait and stance test (rats [3]): no neurotoxicity
